Measurements reported in the kinase profiling compilation of Christmann-Franck et al. (2016).

Legend:
Assay in all cases: KINOMEscan competition binding
Settings in all cases: compound 10.0 µM
DAPK3 (human) = DAPK3 (human) (UniProt O43293)
PIK3C2B (human) = PIK3C2B (human) (UniProt O00750)
ACVR2B (human) = ACVR2B (human) (UniProt Q13705)
[1] = system: KIT (human), P10721 [D816V]
CDKL2 (human) = CDKL2 (human) (UniProt Q92772)
EPHB3 (human) = EPHB3 (human) (UniProt P54753)
MAPK4 (human) = MAPK4 (human) (UniProt P31152)
[2] = system: ABL1 (human), P00519 [M351T]
FGR (human) = FGR (human) (UniProt P09769)
MAP2K1 (human) = MAP2K1 (human) (UniProt Q02750)
RPS6KA5 KD1 (human) = RPS6KA5 KD1 (human) (UniProt O75582)
ALK (human) = ALK (human) (UniProt Q9UM73)
LIMK2 (human) = LIMK2 (human) (UniProt P53671)
RPS6KA4 KD1 (human) = RPS6KA4 KD1 (human) (UniProt O75676)
RPS6KA3 KD1 (human) = RPS6KA3 KD1 (human) (UniProt P51812)
CDK11B (human) = CDK11B (human) (UniProt P21127)
ROS1 (human) = ROS1 (human) (UniProt P08922)
PRKCH (human) = PRKCH (human) (UniProt P24723)
PIP5K1A (human) = PIP5K1A (human) (UniProt Q99755)
NEK7 (human) = NEK7 (human) (UniProt Q8TDX7)
DDR2 (human) = DDR2 (human) (UniProt Q16832)
IGF1R (human) = IGF1R (human) (UniProt P08069)
EPHA2 (human) = EPHA2 (human) (UniProt P29317)
CHEK1 (human) = CHEK1 (human) (UniProt O14757)
PAK3 (human) = PAK3 (human) (UniProt O75914)
NUAK2 (human) = NUAK2 (human) (UniProt Q9H093)
MYO3A (human) = MYO3A (human) (UniProt Q8NEV4)
DAPK1 (human) = DAPK1 (human) (UniProt P53355)
GAK (human) = GAK (human) (UniProt O14976)
CAMKK2 (human) = CAMKK2 (human) (UniProt Q96RR4)
NEK5 (human) = NEK5 (human) (UniProt Q6P3R8)
MAP3K5 (human) = MAP3K5 (human) (UniProt Q99683)
FER (human) = FER (human) (UniProt P16591)
CaMK1 (human) = CaMK1 (human) (UniProt Q14012)
PRKX (human) = PRKX (human) (UniProt P51817)
MAPK1 (human) = MAPK1 (human) (UniProt P28482)
NEK6 (human) = NEK6 (human) (UniProt Q9HC98)
GSK3A (human) = GSK3A (human) (UniProt P49840)
PRKG1 (human) = PRKG1 (human) (UniProt Q13976)
SIK2 (human) = SIK2 (human) (UniProt Q9H0K1)
Sequence of SIK2 (human) (Q9H0K1 whole entry, looked up): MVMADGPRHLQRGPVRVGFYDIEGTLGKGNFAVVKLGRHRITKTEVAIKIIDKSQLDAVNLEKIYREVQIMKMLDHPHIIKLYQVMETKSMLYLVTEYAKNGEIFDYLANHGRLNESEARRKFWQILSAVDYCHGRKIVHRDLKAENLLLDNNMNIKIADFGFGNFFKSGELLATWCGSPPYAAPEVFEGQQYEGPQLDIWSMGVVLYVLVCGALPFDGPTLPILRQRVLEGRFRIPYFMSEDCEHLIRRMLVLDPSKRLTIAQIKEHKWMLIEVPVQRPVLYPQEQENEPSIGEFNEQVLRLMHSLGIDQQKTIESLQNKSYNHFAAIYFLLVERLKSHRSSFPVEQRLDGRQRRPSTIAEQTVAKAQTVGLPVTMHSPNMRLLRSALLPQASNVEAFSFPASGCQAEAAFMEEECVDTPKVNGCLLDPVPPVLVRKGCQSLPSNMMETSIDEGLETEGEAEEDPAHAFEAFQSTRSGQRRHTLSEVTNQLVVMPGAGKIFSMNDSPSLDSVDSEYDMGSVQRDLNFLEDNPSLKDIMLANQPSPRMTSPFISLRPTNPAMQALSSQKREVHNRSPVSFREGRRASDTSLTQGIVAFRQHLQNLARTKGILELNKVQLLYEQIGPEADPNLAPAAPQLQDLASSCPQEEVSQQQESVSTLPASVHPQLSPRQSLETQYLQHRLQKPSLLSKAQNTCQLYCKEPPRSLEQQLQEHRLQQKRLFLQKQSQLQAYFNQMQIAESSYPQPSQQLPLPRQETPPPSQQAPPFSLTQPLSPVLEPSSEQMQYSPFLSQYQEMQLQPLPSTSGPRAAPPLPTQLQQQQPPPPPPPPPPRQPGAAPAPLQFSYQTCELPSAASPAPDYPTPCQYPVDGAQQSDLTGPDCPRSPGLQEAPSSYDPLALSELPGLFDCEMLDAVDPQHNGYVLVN

Sequence of RPS6KA4 KD1 (human) (O75676 whole entry, looked up): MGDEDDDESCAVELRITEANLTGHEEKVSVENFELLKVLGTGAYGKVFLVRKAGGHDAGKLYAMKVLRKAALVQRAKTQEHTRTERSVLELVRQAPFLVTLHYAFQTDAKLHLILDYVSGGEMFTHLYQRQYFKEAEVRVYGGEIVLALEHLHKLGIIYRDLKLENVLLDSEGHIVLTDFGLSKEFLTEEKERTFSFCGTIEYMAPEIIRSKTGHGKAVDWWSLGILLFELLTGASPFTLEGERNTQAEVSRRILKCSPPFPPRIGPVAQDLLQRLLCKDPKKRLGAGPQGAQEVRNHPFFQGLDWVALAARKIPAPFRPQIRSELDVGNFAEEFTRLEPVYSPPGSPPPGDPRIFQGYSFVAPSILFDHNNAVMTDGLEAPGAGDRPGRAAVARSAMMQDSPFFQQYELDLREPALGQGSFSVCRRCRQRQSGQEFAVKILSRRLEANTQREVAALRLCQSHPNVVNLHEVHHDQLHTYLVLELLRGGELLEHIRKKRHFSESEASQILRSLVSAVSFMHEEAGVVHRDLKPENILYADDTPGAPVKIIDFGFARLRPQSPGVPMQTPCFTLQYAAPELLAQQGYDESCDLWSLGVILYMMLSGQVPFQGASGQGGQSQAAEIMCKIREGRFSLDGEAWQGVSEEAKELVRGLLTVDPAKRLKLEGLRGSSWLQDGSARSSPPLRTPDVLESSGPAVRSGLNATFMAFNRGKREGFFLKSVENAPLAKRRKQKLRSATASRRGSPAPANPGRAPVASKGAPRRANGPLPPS
Sequence of CAMKK2 (human) (Q96RR4 whole entry, looked up): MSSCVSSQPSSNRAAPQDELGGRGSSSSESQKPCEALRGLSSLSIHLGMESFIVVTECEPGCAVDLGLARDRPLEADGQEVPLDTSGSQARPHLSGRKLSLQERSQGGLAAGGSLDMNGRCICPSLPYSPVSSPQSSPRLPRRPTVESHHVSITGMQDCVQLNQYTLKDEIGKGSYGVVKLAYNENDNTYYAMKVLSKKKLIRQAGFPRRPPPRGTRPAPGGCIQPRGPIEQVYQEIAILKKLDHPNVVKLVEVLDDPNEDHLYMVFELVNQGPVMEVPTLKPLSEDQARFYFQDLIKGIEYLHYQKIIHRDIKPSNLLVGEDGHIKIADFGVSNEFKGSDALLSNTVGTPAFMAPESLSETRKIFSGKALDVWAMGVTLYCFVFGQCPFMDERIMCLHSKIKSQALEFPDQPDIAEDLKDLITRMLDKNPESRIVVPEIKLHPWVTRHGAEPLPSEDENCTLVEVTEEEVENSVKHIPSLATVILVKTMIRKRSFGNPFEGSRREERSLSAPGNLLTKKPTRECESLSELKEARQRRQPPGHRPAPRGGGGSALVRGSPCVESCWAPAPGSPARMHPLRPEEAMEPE
Sequence of PRKG1 (human) (Q13976 whole entry, looked up): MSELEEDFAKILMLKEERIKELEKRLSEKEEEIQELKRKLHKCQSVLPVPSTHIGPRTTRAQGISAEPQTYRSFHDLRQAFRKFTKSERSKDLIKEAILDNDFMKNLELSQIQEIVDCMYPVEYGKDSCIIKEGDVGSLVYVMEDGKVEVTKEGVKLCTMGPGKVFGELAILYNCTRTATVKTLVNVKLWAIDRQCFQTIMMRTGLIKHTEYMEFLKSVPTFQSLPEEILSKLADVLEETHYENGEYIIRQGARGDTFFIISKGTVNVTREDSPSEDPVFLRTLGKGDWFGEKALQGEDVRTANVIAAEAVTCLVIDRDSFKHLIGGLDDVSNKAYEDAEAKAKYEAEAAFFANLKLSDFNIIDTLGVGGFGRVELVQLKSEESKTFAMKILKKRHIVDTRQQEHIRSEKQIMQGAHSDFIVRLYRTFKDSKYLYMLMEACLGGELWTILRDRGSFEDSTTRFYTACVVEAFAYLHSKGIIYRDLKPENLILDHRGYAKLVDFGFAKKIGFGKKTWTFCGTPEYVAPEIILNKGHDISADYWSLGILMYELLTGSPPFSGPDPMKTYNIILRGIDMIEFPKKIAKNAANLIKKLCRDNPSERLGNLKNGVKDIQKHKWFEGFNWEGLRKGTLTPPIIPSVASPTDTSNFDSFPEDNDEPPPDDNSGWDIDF
Sequence of MAPK4 (human) (P31152 whole entry, looked up): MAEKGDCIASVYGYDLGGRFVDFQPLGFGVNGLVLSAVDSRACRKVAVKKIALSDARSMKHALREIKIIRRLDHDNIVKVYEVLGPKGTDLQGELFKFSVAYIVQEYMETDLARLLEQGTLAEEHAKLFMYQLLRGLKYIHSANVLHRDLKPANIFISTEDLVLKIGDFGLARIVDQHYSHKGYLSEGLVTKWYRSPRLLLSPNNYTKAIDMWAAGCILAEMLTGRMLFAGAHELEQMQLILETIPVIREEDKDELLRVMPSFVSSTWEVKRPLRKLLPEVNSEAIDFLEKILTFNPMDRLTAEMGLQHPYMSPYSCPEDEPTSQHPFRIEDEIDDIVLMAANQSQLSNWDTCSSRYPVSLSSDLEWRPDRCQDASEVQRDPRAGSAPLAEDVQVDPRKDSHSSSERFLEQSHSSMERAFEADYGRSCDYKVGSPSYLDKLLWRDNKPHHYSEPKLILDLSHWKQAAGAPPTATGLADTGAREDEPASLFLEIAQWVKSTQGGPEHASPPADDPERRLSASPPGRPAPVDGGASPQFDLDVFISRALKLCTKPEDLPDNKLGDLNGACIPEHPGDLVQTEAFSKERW
Sequence of PRKCH (human) (P24723 whole entry, looked up): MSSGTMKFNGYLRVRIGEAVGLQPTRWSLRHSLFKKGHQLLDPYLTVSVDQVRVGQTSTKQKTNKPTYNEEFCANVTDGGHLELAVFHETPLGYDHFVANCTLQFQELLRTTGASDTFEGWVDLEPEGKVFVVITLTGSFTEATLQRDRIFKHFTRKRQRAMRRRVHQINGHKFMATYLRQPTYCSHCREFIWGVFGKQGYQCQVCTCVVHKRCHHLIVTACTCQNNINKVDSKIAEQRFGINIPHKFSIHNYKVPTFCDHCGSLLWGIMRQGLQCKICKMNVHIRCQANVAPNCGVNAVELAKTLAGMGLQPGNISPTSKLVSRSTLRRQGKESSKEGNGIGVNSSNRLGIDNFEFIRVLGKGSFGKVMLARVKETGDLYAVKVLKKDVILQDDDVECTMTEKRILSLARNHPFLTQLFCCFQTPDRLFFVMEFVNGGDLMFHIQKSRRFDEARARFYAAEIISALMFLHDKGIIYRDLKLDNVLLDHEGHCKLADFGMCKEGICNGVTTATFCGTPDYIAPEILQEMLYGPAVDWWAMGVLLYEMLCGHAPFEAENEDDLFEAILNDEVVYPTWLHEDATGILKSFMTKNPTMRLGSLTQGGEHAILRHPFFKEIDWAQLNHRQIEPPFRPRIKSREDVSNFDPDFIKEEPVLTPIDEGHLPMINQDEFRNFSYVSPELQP
Sequence of PRKX (human) (P51817 whole entry, looked up): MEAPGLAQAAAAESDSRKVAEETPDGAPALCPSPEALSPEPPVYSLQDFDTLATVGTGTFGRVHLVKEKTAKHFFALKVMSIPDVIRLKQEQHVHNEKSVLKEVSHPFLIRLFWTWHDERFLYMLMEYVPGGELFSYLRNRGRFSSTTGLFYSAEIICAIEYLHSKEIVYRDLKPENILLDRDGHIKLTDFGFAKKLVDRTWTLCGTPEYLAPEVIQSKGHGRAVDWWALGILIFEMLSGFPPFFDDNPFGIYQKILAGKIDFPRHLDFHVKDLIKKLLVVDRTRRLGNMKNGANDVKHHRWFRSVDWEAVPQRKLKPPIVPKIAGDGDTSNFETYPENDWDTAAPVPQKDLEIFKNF
Sequence of NEK7 (human) (Q8TDX7 whole entry, looked up): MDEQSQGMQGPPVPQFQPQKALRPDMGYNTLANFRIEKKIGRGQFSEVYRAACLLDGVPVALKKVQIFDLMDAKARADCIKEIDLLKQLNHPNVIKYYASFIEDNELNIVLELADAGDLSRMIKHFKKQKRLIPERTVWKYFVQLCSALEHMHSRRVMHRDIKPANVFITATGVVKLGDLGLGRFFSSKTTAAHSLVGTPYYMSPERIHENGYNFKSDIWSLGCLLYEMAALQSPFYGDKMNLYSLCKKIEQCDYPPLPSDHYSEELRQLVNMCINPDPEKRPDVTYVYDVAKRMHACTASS

SMILES	kinase still bound, per cent of control (DAPK3 (human))	kinase still bound, per cent of control (PIK3C2B (human))	kinase still bound, per cent of control (ACVR2B (human))	kinase still bound, per cent of control [1]	kinase still bound, per cent of control (CDKL2 (human))	kinase still bound, per cent of control (EPHB3 (human))	kinase still bound, per cent of control (MAPK4 (human))	kinase still bound, per cent of control (FGR (human))	kinase still bound, per cent of control (RPS6KA5 KD1 (human))	kinase still bound, per cent of control (ALK (human))	kinase still bound, per cent of control (LIMK2 (human))	kinase still bound, per cent of control (RPS6KA4 KD1 (human))	kinase still bound, per cent of control (RPS6KA3 KD1 (human))	kinase still bound, per cent of control (CDK11B (human))	kinase still bound, per cent of control (ROS1 (human))	kinase still bound, per cent of control (PRKCH (human))	kinase still bound, per cent of control (PIP5K1A (human))	kinase still bound, per cent of control (NEK7 (human))	kinase still bound, per cent of control (DDR2 (human))	kinase still bound, per cent of control (IGF1R (human))	other results
Cc1ccc(C(=O)Nc2cccc(C(F)(F)F)c2)cc1Nc1cncc(C(N)=O)c1	100%	100%	100%	100%	100%	3.3%	100%	100%	100%	100%	100%	100%	100%	100%	100%	100%	100%	100%	0%	100%	kinase still bound, per cent of control [2]: 27%; kinase still bound, per cent of control (MAP2K1 (human)): 100%; kinase still bound, per cent of control (EPHA2 (human)): 2.2%; kinase still bound, per cent of control (CHEK1 (human)): 100%; kinase still bound, per cent of control (PAK3 (human)): 100%; kinase still bound, per cent of control (NUAK2 (human)): 100%; kinase still bound, per cent of control (MYO3A (human)): 100%; kinase still bound, per cent of control (DAPK1 (human)): 100%; kinase still bound, per cent of control (GAK (human)): 100%; kinase still bound, per cent of control (CAMKK2 (human)): 100%; kinase still bound, per cent of control (NEK5 (human)): 100%; kinase still bound, per cent of control (MAP3K5 (human)): 100%; kinase still bound, per cent of control (FER (human)): 100%; kinase still bound, per cent of control (CaMK1 (human)): 100%; kinase still bound, per cent of control (PRKX (human)): 100%; kinase still bound, per cent of control (MAPK1 (human)): 100%; kinase still bound, per cent of control (NEK6 (human)): 100%; kinase still bound, per cent of control (GSK3A (human)): 100%; kinase still bound, per cent of control (PRKG1 (human)): 100%; kinase still bound, per cent of control (SIK2 (human)): 100%
C[C@@H](Oc1cc(-n2cnc3ccc(CN4CCN(C)CC4)cc32)sc1C(N)=O)c1ccccc1C(F)(F)F	15%	14%	100%	16%	90%	100%	100%	82%	100%	100%	100%	68%	0.5%	100%	84%	90%	14%	66%	77%	100%	kinase still bound, per cent of control [2]: 93%; kinase still bound, per cent of control (MAP2K1 (human)): 92%; kinase still bound, per cent of control (EPHA2 (human)): 92%; kinase still bound, per cent of control (CHEK1 (human)): 100%; kinase still bound, per cent of control (PAK3 (human)): 96%; kinase still bound, per cent of control (NUAK2 (human)): 1.2%; kinase still bound, per cent of control (MYO3A (human)): 78%; kinase still bound, per cent of control (GAK (human)): 100%; kinase still bound, per cent of control (CAMKK2 (human)): 66%; kinase still bound, per cent of control (NEK5 (human)): 25%; kinase still bound, per cent of control (MAP3K5 (human)): 100%; kinase still bound, per cent of control (FER (human)): 100%; kinase still bound, per cent of control (CaMK1 (human)): 90%; kinase still bound, per cent of control (PRKX (human)): 100%; kinase still bound, per cent of control (MAPK1 (human)): 100%; kinase still bound, per cent of control (NEK6 (human)): 95%; kinase still bound, per cent of control (GSK3A (human)): 100%; kinase still bound, per cent of control (PRKG1 (human)): 100%; kinase still bound, per cent of control (SIK2 (human)): 61%
O=C(NOC[C@H](O)CO)c1ccc(F)c(F)c1Nc1ccc(I)cc1F	100%	100%	66%	87%	87%	89%	77%	95%	87%	100%	100%	86%	100%	97%	92%	100%	91%	95%	100%	87%	kinase still bound, per cent of control (EPHA2 (human)): 88%; kinase still bound, per cent of control (CHEK1 (human)): 74%; kinase still bound, per cent of control (PAK3 (human)): 100%; kinase still bound, per cent of control (NUAK2 (human)): 99%; kinase still bound, per cent of control (MYO3A (human)): 47%; kinase still bound, per cent of control (DAPK1 (human)): 100%; kinase still bound, per cent of control (GAK (human)): 71%; kinase still bound, per cent of control (CAMKK2 (human)): 100%; kinase still bound, per cent of control (NEK5 (human)): 78%; kinase still bound, per cent of control (MAP3K5 (human)): 91%; kinase still bound, per cent of control (FER (human)): 100%; kinase still bound, per cent of control (CaMK1 (human)): 98%; kinase still bound, per cent of control (PRKX (human)): 100%; kinase still bound, per cent of control (MAPK1 (human)): 100%; kinase still bound, per cent of control (NEK6 (human)): 100%; kinase still bound, per cent of control (GSK3A (human)): 90%; kinase still bound, per cent of control (PRKG1 (human)): 100%; kinase still bound, per cent of control (SIK2 (human)): 92%
